Measured values as given in ChEMBL document CHEMBL1130308, “Cytotoxicity of bis(phenylamidinium)furan alkyl derivatives in human tumour cell lines: Relation to DNA minor groove binding” (Bioorg Med Chem Lett, 1997).

Key:
Assay type in all cases: functional, cell-based
[1] = test system: A2780; experiment: The compound was tested for cytotoxic potency against A2780 human tumor cell lines.
[2] = test system: A2780; experiment: The compound was tested for cytotoxic potency against A2780R human tumor cell lines.
[3] = test system: CH1; experiment: The compound was tested for cytotoxic potency against CH1 human tumor cell lines.
[4] = test system: SK-OV-3; experiment: The compound was tested for cytotoxic potency against SKOV-3 human tumor cell lines.
[5] = test system: A2780; experiment: The compound was tested for cytotoxic potency against A2780 human tumor cell lines

Compound	IC50 ([1]; Homo sapiens, A2780) [µM]	IC50 ([2]; Homo sapiens, A2780) [µM]	IC50 ([3]; Homo sapiens, CH1) [µM]	IC50 [4] [µM]	IC50 [5] [µM]	IC50 ([1]; a2780) [µM]	IC50 ([2]; a2780) [µM]	IC50 ([3]; ch1) [µM]
N=C(NC1CC1)c1ccc(-c2ccc(-c3ccc(C(=N)NC4CC4)cc3)o2)cc1	37	15.5	18	48	–	–	–	–
CC(C)CNC(=N)c1ccc(-c2ccc(-c3ccc(C(=N)NCC(C)C)cc3)o2)cc1	22.5	12	9	52	–	–	–	–
N=C(NC1CCCC1)c1ccc(-c2ccc(-c3ccc(C(=N)NC4CCCC4)cc3)o2)cc1	12	3.8	3.6	17	–	–	–	–
N=C(NCC1CC1)c1ccc(-c2ccc(-c3ccc(C(=N)NCC4CC4)cc3)o2)cc1	36	13	15	56	–	–	–	–
N=C(NC1CCCCC1)c1ccc(-c2ccc(-c3ccc(C(=N)NC4CCCCC4)cc3)o2)cc1	4.8	2.5	2.1	5.2	–	–	–	–
N=C(N)c1ccc(-c2ccc(-c3ccc(C(=N)N)cc3)o2)cc1 [FURAMIDINE]	–	15.5	46.5	42.5	46	–	–	–
CCC(CC)NC(=N)c1ccc(-c2ccc(-c3ccc(C(=N)NC(CC)CC)cc3)o2)cc1	32.5	7.1	16	31	–	–	–	–
CISPLATIN	–	–	–	–	–	0.3	3.3	0.1
N=C(NC1CCC1)c1ccc(-c2ccc(-c3ccc(C(=N)NC4CCC4)cc3)o2)cc1	11	3.3	4.2	25	–	–	–	–
CC(C)NC(=N)c1ccc(-c2ccc(-c3ccc(C(=N)NC(C)C)cc3)o2)cc1	38	6.4	44.5	20.5	–	–	–	–
